Consider 14 compounds from patent US11066443B2 (Hoffmann-La Roche Inc., priority 2017, dated 2021).

In this assay the test system is P. aeruginosa NCTC11454. The experiment in a line: Antimicrobial susceptibility testing: 50% growth inhibitory concentration (IC50) determination. It is filed as cell-based. As to conditions: Pseudomonas aeruginosa, Iso-Sensitest broth, OD 600 nm every 20 minutes over 16h, growth inhibition during logarithmic growth. As to the method: The in vitro antimicrobial activity of the compounds was alternatively determined according to the following procedure: The assay used a 10-points Iso-Sensitest broth medium to measure quantitatively the in vitro activity of the compounds against P. aeruginosa NCTC11454. Stock compounds in DMSO were serially twofold diluted (e.g. range from 50 to 0.097 μM final concentration) in 384 wells microtiter plates and inoculated with 49 μl the bacterial suspension in Iso-Sensitest medium to have a final cell concentration of ˜5×10^(5) CFU/ml in a final volume/well of 50 ul/well. Microtiter plates were incubated at 35±2° C. Bacterial cell growth was determined with the measurement of optical density at λ=600 nm each 20 minutes over a time course of 16h. Growth inhibition was calculated during the logarithmic growth of the bacterial cells with determination of the concentration inhibiting 50% (IC50) and 90% (IC90) of the growth. Table 2 provides the 50% growth inhibitory concentrations (IC50) in micromoles per liter of the compounds of present invention obtained against P. aeruginosa NCTC11454.
In the case of `CN1C(=O)[C@H](CCCCN)NC(=O)[C@H](CCCN)NCc2ccccc2Sc2c(ccc(Br)c2Cl)CNC(=O)[C@@H]1Cc1c[nH]c2ccccc12` [Example 41, (12S,15S,18S)-15-(4-Amino-butyl)-18-(3-amino-propyl)-5-bromo-4-chloro-12-(1H-indol-3-ylmethyl)-13-methyl-2-thia-10,13,16,19-tetraaza-tricyclo[19.4.0.0*3,8*]pentacosa-1(25),3,5,7,21,23-hexaene-11,14,17-trione], the IC50 (usually the concentration that gives 50% inhibition) was 6.5 µM.

For the compound `CN1C(=O)[C@H](CCCCN)NC(=O)[C@H](CCC(N)=O)NCc2ccccc2Sc2c(cc(-c3ccccc3)cc2C(F)(F)F)CNC(=O)[C@@H]1Cc1c[nH]c2ccccc12` [Example 38, 3-[(11S,14S,17S)-14-(4-Amino-butyl)-17-(1H-indol-3-ylmethyl)-16-methyl-12,15,18-trioxo-23-phenyl-25-trifluoromethyl-2-thia-10,13,16,19-tetraaza-tricyclo[19.4.0.0*3,8*]pentacosa-1(25),3,5,7,21,23-hexaen-11-yl]-propionamide], 14.5 µM corresponded to half-maximal inhibition (IC50).

Turning to `CN1C(=O)[C@H](CCCCN)NC(=O)[C@H](CCCN)NCc2cc(-c3ccccc3)ccc2Sc2c(Cl)cccc2CNC(=O)[C@@H]1Cc1c[nH]c2ccccc12` [Example 49, (12S,15S,18S)-15-(4-Amino-butyl)-18-(3-amino-propyl)-4-chloro-12-(1H-indol-3-ylmethyl)-13-methyl-23-phenyl-2-thia-10,13,16,19-tetraaza-tricyclo[19.4.0.0*3,8*]pentacosa-1(25),3,5,7,21,23-hexaene-11,14,17-trione], the IC50 was 10.8 µM.

As to `CN1C(=O)[C@H](CCCCN)NC(=O)[C@H](CCCN)NCc2ccccc2Sc2ccc(Cl)cc2CNC(=O)[C@@H]1Cc1cn(C)c2cc(Cl)ccc12` [Example 8, (12S,15S,18S)-15-(4-Amino-butyl)-18-(3-amino-propyl)-6-chloro-12-(6-chloro-1-methyl-1H-indol-3-ylmethyl)-13-methyl-2-thia-10,13,16,19-tetraaza-tricyclo[19.4.0.0*3,8*]pentacosa-1(21),3,5,7,22,24-hexaene-11,14,17-trione], the IC50 is 13.2 µM.

The compound `CN1C(=O)[C@H](CCCCN)NC(=O)[C@H](CCCN)NCc2cccnc2Sc2c(Cl)cc(-c3ccnc(Cl)c3)cc2CNC(=O)[C@@H]1Cc1c[nH]c2ccccc12` [Example 40, (11S,14S,17S)-14-(4-Amino-butyl)-11-(3-amino-propyl)-25-chloro-23-(2-chloro-pyridin-4-yl)-17-(1H-indol-3-ylmethyl)-16-methyl-2-thia-4,10,13,16,19-pentaaza-tricyclo[19.4.0.0*3,8*]pentacosa-1(21),3,5,7,22,24-hexaene-12,15,18-trione] displayed an IC50 of 25.1 µM.

`CN1C(=O)[C@H](CCCCN)NC(=O)[C@H](CCCN)NCc2ccccc2Sc2c(Cl)ccc(C(F)(F)F)c2CNC(=O)[C@@H]1Cc1c[nH]c2ccccc12` [Example 10, (12S,15S,18S)-15-(4-Amino-butyl)-18-(3-amino-propyl)-4-chloro-12-(1H-indol-3-ylmethyl)-13-methyl-7-trifluoromethyl-2-thia-10,13,16,19-tetraaza-tricyclo[19.4.0.0*3,8*]pentacosa-1(25),3,5,7,21,23-hexaene-11,14,17-trione] returned an IC50 of 10.7 µM.

The compound `NCCCC[C@@H]1NC(=O)[C@@H](CCCN)NCc2cccnc2Sc2c(ccc(-c3ccccc3)c2Cl)CNC(=O)[C@H](Cc2c[nH]c3ccccc23)NC1=O` [Example 25, (11R,14S,17S)-14-(4-Amino-butyl)-11-(3-amino-propyl)-25-chloro-17-(1H-indol-3-ylmethyl)-24-phenyl-2-thia-4,10,13,16,19-pentaaza-tricyclo[9.4.0.0*3,8*]pentacosa-1(25),3,5,7,21,23-hexaene-12,15,18-trione] returned an IC50 of 25.3 µM.

In the case of `CN1C(=O)[C@H](CCCCN)NC(=O)[C@H](CCCN)NCc2ccccc2Sc2c(Cl)cc(-c3ccccc3Cl)cc2CNC(=O)[C@@H]1Cc1c[nH]c2ccccc12` [Example 33, (12S,15S,18S)-15-(4-Amino-butyl)-18-(3-amino-propyl)-4-chloro-6-(2-chloro-phenyl)-12-(1H-indol-3-ylmethyl)-13-methyl-2-thia-10,13,16,19-tetraaza-tricyclo[19.4.0.0*3,8*]pentacosa-1(25),3,5,7,21,23-hexaene-11,14,17-trione], inhibition was half-maximal at 9.02 µM (IC50).

Compound `CN1C(=O)[C@H](CCCCN)NC(=O)[C@H](CCCN)NCc2ccccc2Sc2c(Cl)cc(Br)cc2CNC(=O)[C@@H]1Cc1c[nH]c2ccccc12` [Example 36, (12S,15S,18S)-15-(4-Amino-butyl)-18-(3-amino-propyl)-6-bromo-4-chloro-12-(1H-indol-3-ylmethyl)-13-methyl-2-thia-10,13,16,19-tetraaza-tricyclo[19.4.0.0*3,8*]pentacosa-1(25),3,5,7,21,23-hexaene-11,14,17-trione] came in with an IC50 of 12.5 µM.

Regarding `CN1C(=O)[C@H](CCCCN)NC(=O)[C@H](CCCN)NCc2ccccc2Sc2c(ccc(-c3ccccc3)c2Cl)CNC(=O)[C@@H]1Cc1c[nH]c2ccccc12` [Example 42, (12S,15S,18S)-15-(4-Amino-butyl)-18-(3-amino-propyl)-4-chloro-12-(1H-indol-3-ylmethyl)-13-methyl-5-phenyl-2-thia-10,13,16,19-tetraaza-tricyclo[19.4.0.0*3,8*]pentacosa-1(25),3,5,7,21,23-hexaene-11,14,17-trione], inhibition was half-maximal at 3.47 µM (IC50).

The compound `CN1C(=O)[C@H](CCCCN)NC(=O)[C@H](CCCN)NCc2cccnc2Sc2c(Cl)cc(-c3ccccc3)cc2CNC(=O)[C@@H]1Cc1c[nH]c2ccccc12` [Example 35, 11-(3-amino-propyl)-25-chloro-17-(1H-indol-3-ylmethyl)-16-methyl-23-phenyl-2-thia-4,10,13,16,19-pentaaza-tricyclo[9.4.0.0*3,8*]pentacsa-(25),3(8),4,6,21,23-hexaene-12,15,18-trione] came in with an IC50 of 8.1 µM.

`CN1C(=O)[C@H](CCCCN)NC(=O)[C@H](CCCN)NCc2cccnc2Sc2c(cc(-c3ccccc3)cc2C(F)(F)F)CNC(=O)[C@@H]1Cc1c[nH]c2ccccc12` [Example 22, (11S,14S,17S)-14-(4-Amino-butyl)-11-(3-amino-propyl)-17-(1H-indol-3-ylmethyl)-16-methyl-23-phenyl-25-trifluoromethyl-2-thia-4,10,13,16,19-pentaaza-tricyclo[19.4.0.0*3,8*]pentacosa-1(25),3,5,7,21,23-hexaene-12,15,18-trione] came in with a concentration for half-maximal inhibition (IC50) of 10.1 µM.

For the compound `Cc1cc(Cl)cc2c1Sc1ccccc1CN[C@@H](CCCN)C(=O)N[C@@H](CCCCN)C(=O)N(C)[C@@H](Cc1c[nH]c3ccccc13)C(=O)NC2` [Example 14, (12S,15S,18S)-15-(4-Amino-butyl)-18-(3-amino-propyl)-6-chloro-12-(1H-indol-3-ylmethyl)-4,13-dimethyl-2-thia-10,13,16,19-tetraaza-tricyclo[19.4.0.0*3,8*]pentacosa-1(25),3,5,7,21,23-hexaene-11,14,17-trione], it took 24.3 µM to reach half-maximal inhibition (IC50).

Consider `CN1C(=O)[C@H](CCCN)NC(=O)[C@H](CCCN)NCc2ccccc2Sc2c(Cl)cc(Cl)cc2CNC(=O)[C@@H]1Cc1c[nH]c2ccccc12` [Example 30, (12S,15S,18S)-15,18-Bis-(3-amino-propyl)-4,6-dichloro-12-(1H-indol-3-ylmethyl)-13-methyl-2-thia-10,13,16,19-tetraaza-tricyclo[19.4.0.0*3,8*]pentacosa-1(25),3,5,7,21,23-hexaene-11,14,17-trione], for which it took 11.1 µM to reach half-maximal inhibition (IC50).
